Assays:
[1] = test system: Oryctolagus cuniculus; assay: Regulation of fertility in rabbit assessed as fetal loss 60 mg/kg; assay type: functional
[2] = test system: Oryctolagus cuniculus; assay: Regulation of fertility in rabbit assessed as fetal loss 90 mg/kg; assay type: functional

With `COc1cccc2c1ccc1c(C(=O)O)cc3c(c12)OCO3` [ARISTOLIC ACID] the Activity [1] was 80% and the Activity [2] was 80%.
